Our source for the Ki, Cmax and AUC values is ChEMBL document CHEMBL1136651, “Structure-based de novo design of non-nucleoside adenosine deaminase inhibitors” (Bioorg Med Chem Lett, 2003).

For one data set, the target named is T1, Adenosine deaminase (Homo sapiens, UniProt P00813).
T1 sequence (P00813 whole entry): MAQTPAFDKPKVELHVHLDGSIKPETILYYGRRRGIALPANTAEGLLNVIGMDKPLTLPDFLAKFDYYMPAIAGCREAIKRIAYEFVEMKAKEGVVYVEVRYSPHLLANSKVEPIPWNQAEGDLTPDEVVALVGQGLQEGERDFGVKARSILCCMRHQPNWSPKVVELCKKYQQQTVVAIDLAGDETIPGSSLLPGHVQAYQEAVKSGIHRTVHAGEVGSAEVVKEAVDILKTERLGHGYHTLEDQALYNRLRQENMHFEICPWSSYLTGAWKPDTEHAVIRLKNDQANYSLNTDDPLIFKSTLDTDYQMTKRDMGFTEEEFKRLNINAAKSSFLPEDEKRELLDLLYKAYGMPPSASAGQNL

The nature of data set [1]: Pharmacokinetic property (C(max)) was determined after ip administration of 32 mg/kg in mice. The following applies: mouse, in vivo. It counts as ADME, organism-based. More on the design: dose 32 mg/kg, route intraperitoneal.
Data set [2] can be described thus: Pharmacokinetic property (AUC) was determined after ip administration of 32 mg/kg in mice. It is filed as ADME, organism-based. The arrangement: dose 32 mg/kg, route intraperitoneal. The following applies: mouse, in vivo.
The nature of data set [3]: Pharmacokinetic property (AUC) was determined after po administration of 32 mg/kg in mice. It is filed as ADME, organism-based. The arrangement: dose 32 mg/kg, route oral. The following applies: mouse, in vivo.
Data set [4] can be described thus: Pharmacokinetic property (C(max)) was determined after po administration of 32 mg/kg in mice. It is filed as ADME, organism-based. More on the design: dose 32 mg/kg, route oral. The following applies: mouse, in vivo.

pKi: −log10 of the molar value.

Description for Adenosine deaminase: Inhibition constant against human adenosine deaminase was determined

The term pKi denotes the Ki on a negative log10 scale, so that one unit is a factor of ten. At Adenosine deaminase, `OCc1cn(C(CO)c2ccccc2)cn1` (stereo not given) showed a pKi of less than 4.00.

`COC(=O)c1cn(C(CO)c2ccccc2)cn1` (stereo not given): at Adenosine deaminase, the pKi is less than 4.00.

In general, Cmax refers to the highest concentration seen after dosing. By AUC is commonly meant concentration integrated over time. A high value points to high exposure. Turning to `OC[C@H]1O[C@@H](n2cnc3c2NC=NC[C@H]3O)C[C@@H]1O` [PENTOSTATIN], the Cmax in data set [1] is 12200 ng/mL. The same molecule had an AUC in data set [2] of 9500 ng·h/mL.

On to `NC(=O)c1cn(C(CO)CCc2ccccc2)cn1` (stereo not given) [FR-221647], for which the values for the AUC in data set [3] and in data set [2] were 29900 ng·h/mL and 29600 ng·h/mL, respectively. In addition, the figures for the highest concentration (Cmax) in data set [4] and in data set [1] were 15200 ng/mL and 25200 ng/mL, respectively.

As for `CCCCCC[C@@H]([C@@H](C)O)n1cnc2c(N)ncnc21` [EHNA], the figures for the AUC in data set [3] and in data set [2] were 1000 ng·h/mL and 2200 ng·h/mL, respectively. Besides, the figures for the Cmax in data set [4] and in data set [1] were 1100 ng/mL and 5900 ng/mL, respectively. The same molecule gave a negative logarithm of the Ki (pKi) on Adenosine deaminase of 8.43.

Consider `O=C(O)c1cn(C(CO)c2ccccc2)cn1` (stereo not given), for which the negative-log Ki (pKi) at Adenosine deaminase was less than 4.00.

Molecule `NC(=O)c1cn(C(CO)c2ccccc2)cn1` (stereo not given) showed a pKi at Adenosine deaminase of 4.27.
